According to patent US20090246293A1 (priority 2008, published 2009):
Read-outs that look alike come from different tables or passages of the source.

How the values were obtained:
[1] = tested on: Plasmopara viticola (PLASVI); format: in vivo; conditions: for Reduction in percent disease: aldehyde derivative 100 ppm with mancozeb; for Reduction in percent disease / Reduction in percent disease, Formul. I / Reduction in percent disease, Formul. II: PLASVI; for Reduction in percent disease, Formul. I / Reduction in percent disease, Formul. II: Table 21; for Reduction in percent disease, Formul. II: fungicide with Formulation II at 100 ppm; for effect of Formulation I on the effectiveness of fungicides, PLASVI: Table 20
[2] = tested on: Phytophthora infestans (PHYTIN); format: in vivo; conditions: for effect of Formulation I on the effectiveness of fungicides, PHYTIN: Table 20; for Reduction in percent disease, Formul. I / Reduction in percent disease, Formul. II: PHYTIN
[3] = tested on: Pseudoperonospora cubensis (PSPECU); conditions: in vivo
[4] = fungicide with Formulation I at 100 ppm, Table 19
[5] = fungicide with Formulation I at 100 ppm, Table 18
[6] = aldehyde derivative 500 ppm with mancozeb, Table 16
[7] = fungicide with Formulation I at 100 ppm
[8] = fungicide with Formulation I at 100 ppm, Table 21
[9] = fungicide with Formulation II at 100 ppm, Table 21

Structure (SMILES): COc1ccc(C(=CC(=O)N2CCOCC2)c2ccc(Cl)cc2)cc1OC [Dimethomorph]
- Reduction in percent disease PLASVI [1, 4]: xx (21-35% reduction in percent disease)
- Reduction in percent disease PHYTIN [2, 4]: x (0-20% reduction in percent disease)
- Reduction in percent disease PSPECU [3]: x (key: x: 0-20% reduction in percent disease; xx: 21-35% reduction in percent disease; xxx: 36-50% reduction in percent disease; xxxx: >50% reduction in percent disease)

Structure (SMILES): CCNC(=O)NC(=O)/C(C#N)=N/OC [Cymoxanil]
- Reduction in percent disease PLASVI [1, 5]: x (0-20% reduction in percent disease)
- Reduction in percent disease PHYTIN [2, 5]: xx (21-35% reduction in percent disease)
- Reduction in percent disease PSPECU [3]: x (key: x: 0-20% reduction in percent disease; xx: 21-35% reduction in percent disease; xxx: 36-50% reduction in percent disease; xxxx: >50% reduction in percent disease)

Structure (SMILES): CC(C)(C)C/C=N/NC(=O)c1cccc(C(=O)N/N=C/CC(C)(C)C)c1 [Compound S]
- Reduction in percent disease PLASVI [1, 6]: x (0-20% reduction in percent disease)
- Reduction in percent disease PHYTIN [2, 6]: xx (21-35% reduction in percent disease)
- Reduction in percent disease PSPECU [3]: x (key: x: 0-20% reduction in percent disease; xx: 21-35% reduction in percent disease; xxx: 36-50% reduction in percent disease; xxxx: >50% reduction in percent disease)

Structure (SMILES): CCCCCCCCCCCCCCCCCC(=O)NN=CCC(C)C [Compound L]
- Reduction in percent disease ([1]; Table 15): xxx (36-50% reduction in percent disease)
- Reduction in percent disease [3]: xx (key: x: 0-20% reduction in percent disease; xx: 21-35% reduction in percent disease; xxx: 36-50% reduction in percent disease; xxxx: >50% reduction in percent disease)

Structure (SMILES): CO/C=C(/C(=O)OC)c1ccccc1Oc1cc(Oc2ccccc2C#N)ncn1 [Azoxystrobin]
- Reduction in percent disease PLASVI [1, 5]: x (0-20% reduction in percent disease)
- Reduction in percent disease PHYTIN [2, 5]: xx (21-35% reduction in percent disease)
- effect of Formulation I on the effectiveness of fungicides, PHYTIN [2, 7]: xxx (36-50% reduction in percent disease)
- Reduction in percent disease PSPECU [3]: x (key: x: 0-20% reduction in percent disease; xx: 21-35% reduction in percent disease; xxx: 36-50% reduction in percent disease; xxxx: >50% reduction in percent disease)
- effect of Formulation I on the effectiveness of fungicides, PSPECU [3]: x (key: x: 0-20% reduction in percent disease; xx: 21-35% reduction in percent disease; xxx: 36-50% reduction in percent disease; xxxx: >50% reduction in percent disease)

Structure (SMILES): CC(C)CC=NNC(=O)c1cccc(C(=O)N/N=C/CC(C)C)c1 [Compound C]
- Reduction in percent disease ([1]; Table 13): xx (21-35% reduction in percent disease)
- Reduction in percent disease ([1]; Table 15): xx (21-35% reduction in percent disease)
- Reduction in percent disease [3]: xxx (key: x: 0-20% reduction in percent disease; xx: 21-35% reduction in percent disease; xxx: 36-50% reduction in percent disease; xxxx: >50% reduction in percent disease)

Structure (SMILES): COC(=O)N(OC)c1ccccc1COc1ccn(-c2ccc(Cl)cc2)n1 [Pyraclostrobin]
- Reduction in percent disease PHYTIN [2, 5]: x (0-20% reduction in percent disease)
- Reduction in percent disease PSPECU [3]: x (key: x: 0-20% reduction in percent disease; xx: 21-35% reduction in percent disease; xxx: 36-50% reduction in percent disease; xxxx: >50% reduction in percent disease)

Structure (SMILES): Cc1c(Br)c2ccc(F)cc2n1S(=O)(=O)c1ncn(S(=O)(=O)N(C)C)n1 [Amisulbrom]
- Reduction in percent disease, Formul. I [1, 7]: xxx (36-50% reduction in percent disease)
- Reduction in percent disease, Formul. II [1]: xx (21-35% reduction in percent disease)
- effect of Formulation I on the effectiveness of fungicides, PLASVI [1, 7]: x (0-20% reduction in percent disease)
- Reduction in percent disease, Formul. I [2, 8]: x (0-20% reduction in percent disease)
- Reduction in percent disease, Formul. II [2, 9]: x (0-20% reduction in percent disease)
- effect of Formulation I on the effectiveness of fungicides, PHYTIN [2, 7]: x (0-20% reduction in percent disease)
- Reduction in percent disease, Formul. I [3]: x (key: x: 0-20% reduction in percent disease; xx: 21-35% reduction in percent disease; xxx: 36-50% reduction in percent disease; xxxx: >50% reduction in percent disease)
- Reduction in percent disease, Formul. II [3]: x (key: x: 0-20% reduction in percent disease; xx: 21-35% reduction in percent disease; xxx: 36-50% reduction in percent disease; xxxx: >50% reduction in percent disease)

Structure (SMILES): C[C@@]1(c2ccc(Oc3ccccc3)cc2)OC(=O)N(Nc2ccccc2)C1=O (racemic) [Famoxadone]
- Reduction in percent disease PLASVI [1, 4]: x (0-20% reduction in percent disease)
- Reduction in percent disease PHYTIN [2, 4]: xx (21-35% reduction in percent disease)
- Reduction in percent disease PSPECU [3]: x (key: x: 0-20% reduction in percent disease; xx: 21-35% reduction in percent disease; xxx: 36-50% reduction in percent disease; xxxx: >50% reduction in percent disease)

Structure (SMILES): CCCOC(=O)NCCCN(C)C [Propamocarb]
- Reduction in percent disease PLASVI [1, 5]: x (0-20% reduction in percent disease)
- Reduction in percent disease PHYTIN [2, 5]: xx (21-35% reduction in percent disease)
- Reduction in percent disease PSPECU [3]: x (key: x: 0-20% reduction in percent disease; xx: 21-35% reduction in percent disease; xxx: 36-50% reduction in percent disease; xxxx: >50% reduction in percent disease)

Structure (SMILES): Cc1ccc(-c2c(Cl)nc(C#N)n2S(=O)(=O)N(C)C)cc1 [Cyazofamid]
- Reduction in percent disease, Formul. I [1, 7]: x (0-20% reduction in percent disease)
- Reduction in percent disease, Formul. II [1]: x (0-20% reduction in percent disease)
- Reduction in percent disease PLASVI [1, 4]: x (0-20% reduction in percent disease)
- Reduction in percent disease, Formul. I [2, 8]: xx (21-35% reduction in percent disease)
- Reduction in percent disease, Formul. II [2, 9]: xxx (36-50% reduction in percent disease)
- Reduction in percent disease PHYTIN [2, 4]: x (0-20% reduction in percent disease)
- Reduction in percent disease, Formul. II [3]: x (key: x: 0-20% reduction in percent disease; xx: 21-35% reduction in percent disease; xxx: 36-50% reduction in percent disease; xxxx: >50% reduction in percent disease)

Structure (SMILES): C/C(CC(C)C)=N\NC(=O)Nc1ccccc1 [Compound O]
- Reduction in percent disease PLASVI [1, 6]: x (0-20% reduction in percent disease)
- Reduction in percent disease PHYTIN [2, 6]: xx (21-35% reduction in percent disease)
- Reduction in percent disease PSPECU [3]: xx (key: x: 0-20% reduction in percent disease; xx: 21-35% reduction in percent disease; xxx: 36-50% reduction in percent disease; xxxx: >50% reduction in percent disease)

Structure (SMILES): [Cl-].[Cu+2].[Cu+2].[OH-].[OH-].[OH-] [Copper oxychloride]
- effect of Formulation I on the effectiveness of fungicides, PLASVI [1, 7]: x (0-20% reduction in percent disease)
- effect of Formulation I on the effectiveness of fungicides, PHYTIN [2, 7]: x (0-20% reduction in percent disease)
- effect of Formulation I on the effectiveness of fungicides, PSPECU [3]: x (key: x: 0-20% reduction in percent disease; xx: 21-35% reduction in percent disease; xxx: 36-50% reduction in percent disease; xxxx: >50% reduction in percent disease)

Structure (SMILES): CO/C=C(/C(=O)OC)c1ccccc1COc1cccc(C(F)(F)F)n1 [Picoxystrobin]
- Reduction in percent disease PLASVI [1, 5]: xxx (36-50% reduction in percent disease)
- Reduction in percent disease, Formul. II ([2]; fungicide with Formulation II at 100 ppm of attractant derivative, Table 22): x (0-20% reduction in percent disease)
- Reduction in percent disease PHYTIN [2, 5]: x (0-20% reduction in percent disease)
- Reduction in percent disease, Formul. II [3]: x (key: x: 0-20% reduction in percent disease; xx: 21-35% reduction in percent disease; xxx: 36-50% reduction in percent disease; xxxx: >50% reduction in percent disease)

Structure (SMILES): CC(C)C/C=N/NC(=O)N/N=C/CC(C)C [Compound F]
- Reduction in percent disease ([1]; Table 13): x (0-20% reduction in percent disease)
- Reduction in percent disease [3]: xx (key: x: 0-20% reduction in percent disease; xx: 21-35% reduction in percent disease; xxx: 36-50% reduction in percent disease; xxxx: >50% reduction in percent disease)

Structure (SMILES): CO/N=C(/C(=O)OC)c1ccccc1COc1ccccc1C [Kresoxim-methyl]
- Reduction in percent disease PHYTIN [2, 5]: x (0-20% reduction in percent disease)
- Reduction in percent disease PSPECU [3]: x (key: x: 0-20% reduction in percent disease; xx: 21-35% reduction in percent disease; xxx: 36-50% reduction in percent disease; xxxx: >50% reduction in percent disease)
- Reduction in percent disease, Formul. II [3]: x (key: x: 0-20% reduction in percent disease; xx: 21-35% reduction in percent disease; xxx: 36-50% reduction in percent disease; xxxx: >50% reduction in percent disease)

Structure (SMILES): CC(C)C/C=N/NC(N)=O [Compound D]
- Reduction in percent disease ([1]; Table 13): x (0-20% reduction in percent disease)
- Reduction in percent disease [3]: xx (key: x: 0-20% reduction in percent disease; xx: 21-35% reduction in percent disease; xxx: 36-50% reduction in percent disease; xxxx: >50% reduction in percent disease)

Structure (SMILES): O=C1c2ccccc2C(=O)N1SC(Cl)(Cl)Cl [Folpet]
- Reduction in percent disease, Formul. I ([2]; fungicide with Formulation I at 100 ppm of attractant derivative, Table 22): x (0-20% reduction in percent disease)
- Reduction in percent disease, Formul. I [3]: x (key: x: 0-20% reduction in percent disease; xx: 21-35% reduction in percent disease; xxx: 36-50% reduction in percent disease; xxxx: >50% reduction in percent disease)

Structure (SMILES): CC(C)C/C=N/NC(=O)CCCCCCCCC(=O)N/N=C/CC(C)C [Compound J]
- Reduction in percent disease ([1]; Table 15): x (0-20% reduction in percent disease)
- Reduction in percent disease [3]: xx (key: x: 0-20% reduction in percent disease; xx: 21-35% reduction in percent disease; xxx: 36-50% reduction in percent disease; xxxx: >50% reduction in percent disease)

Structure (SMILES): CC(C)C/C=N/NC(=O)CCCC(=O)N/N=C/CC(C)C [Compound E]
- Reduction in percent disease ([1]; Table 13): xx (21-35% reduction in percent disease)
- Reduction in percent disease [3]: xxx (key: x: 0-20% reduction in percent disease; xx: 21-35% reduction in percent disease; xxx: 36-50% reduction in percent disease; xxxx: >50% reduction in percent disease)

Structure (SMILES): CCCCCCCC(=O)N/N=C/CC(C)C [Compound K]
- Reduction in percent disease ([1]; Table 15): xx (21-35% reduction in percent disease)
- Reduction in percent disease [3]: xx (key: x: 0-20% reduction in percent disease; xx: 21-35% reduction in percent disease; xxx: 36-50% reduction in percent disease; xxxx: >50% reduction in percent disease)

Structure (SMILES): CC(C)C/C=N/NC(=O)C(=O)N/N=C/CC(C)C [Compound G]
- Reduction in percent disease ([1]; Table 13): xx (21-35% reduction in percent disease)
- Reduction in percent disease [3]: xxx (key: x: 0-20% reduction in percent disease; xx: 21-35% reduction in percent disease; xxx: 36-50% reduction in percent disease; xxxx: >50% reduction in percent disease)

Structure (SMILES): CC(C)C/C=N/NC(=O)CCCCC(=O)N/N=C/CC(C)C [Compound N]
- Reduction in percent disease ([1]; Table 15): x (0-20% reduction in percent disease)
- Reduction in percent disease [3]: xx (key: x: 0-20% reduction in percent disease; xx: 21-35% reduction in percent disease; xxx: 36-50% reduction in percent disease; xxxx: >50% reduction in percent disease)
